Literature values in US7786168B2, “Phenolic acid salts of gabapentin in solid dosage forms and methods of use” (Kiel Laboratories, Inc., priority 2003, dated 2010).

Assays:
[1] = biological target: gb1a-gb^2 heterodimer and post-synaptic GABAB receptor (Homo sapiens, UniProt Q9UBS5)
[2] = in water and across a wide range of pH

Chain of gb1a-gb^2 heterodimer and post-synaptic GABAB receptor (Q9UBS5 15-961 limits assumed): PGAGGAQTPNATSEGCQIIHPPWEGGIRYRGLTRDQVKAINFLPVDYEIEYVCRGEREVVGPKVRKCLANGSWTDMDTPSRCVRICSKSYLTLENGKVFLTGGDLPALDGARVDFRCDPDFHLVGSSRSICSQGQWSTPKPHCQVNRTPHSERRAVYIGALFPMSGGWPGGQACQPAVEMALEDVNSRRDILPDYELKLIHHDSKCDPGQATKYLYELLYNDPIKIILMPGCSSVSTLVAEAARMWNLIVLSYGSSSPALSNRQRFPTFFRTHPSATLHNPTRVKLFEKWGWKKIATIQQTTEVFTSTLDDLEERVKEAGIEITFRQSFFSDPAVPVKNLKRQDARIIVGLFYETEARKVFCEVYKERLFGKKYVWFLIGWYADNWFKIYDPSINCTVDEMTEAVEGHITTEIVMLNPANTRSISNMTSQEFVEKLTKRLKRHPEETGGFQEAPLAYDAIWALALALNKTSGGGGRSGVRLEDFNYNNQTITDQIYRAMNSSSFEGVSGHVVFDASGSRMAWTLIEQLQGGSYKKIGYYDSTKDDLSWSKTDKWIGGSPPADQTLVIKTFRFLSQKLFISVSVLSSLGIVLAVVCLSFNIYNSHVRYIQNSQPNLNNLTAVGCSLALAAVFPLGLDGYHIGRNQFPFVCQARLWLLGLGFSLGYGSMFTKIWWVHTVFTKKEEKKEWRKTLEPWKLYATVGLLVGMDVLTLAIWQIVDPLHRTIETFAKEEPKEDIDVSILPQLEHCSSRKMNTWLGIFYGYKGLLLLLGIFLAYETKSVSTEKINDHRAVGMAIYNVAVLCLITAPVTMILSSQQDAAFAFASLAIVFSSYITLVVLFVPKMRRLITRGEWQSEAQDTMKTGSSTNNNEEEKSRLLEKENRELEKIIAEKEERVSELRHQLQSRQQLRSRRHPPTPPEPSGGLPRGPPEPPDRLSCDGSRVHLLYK
Chain of gb1a-gb^2 heterodimer and post-synaptic GABAB receptor (O75899 42-941 partner): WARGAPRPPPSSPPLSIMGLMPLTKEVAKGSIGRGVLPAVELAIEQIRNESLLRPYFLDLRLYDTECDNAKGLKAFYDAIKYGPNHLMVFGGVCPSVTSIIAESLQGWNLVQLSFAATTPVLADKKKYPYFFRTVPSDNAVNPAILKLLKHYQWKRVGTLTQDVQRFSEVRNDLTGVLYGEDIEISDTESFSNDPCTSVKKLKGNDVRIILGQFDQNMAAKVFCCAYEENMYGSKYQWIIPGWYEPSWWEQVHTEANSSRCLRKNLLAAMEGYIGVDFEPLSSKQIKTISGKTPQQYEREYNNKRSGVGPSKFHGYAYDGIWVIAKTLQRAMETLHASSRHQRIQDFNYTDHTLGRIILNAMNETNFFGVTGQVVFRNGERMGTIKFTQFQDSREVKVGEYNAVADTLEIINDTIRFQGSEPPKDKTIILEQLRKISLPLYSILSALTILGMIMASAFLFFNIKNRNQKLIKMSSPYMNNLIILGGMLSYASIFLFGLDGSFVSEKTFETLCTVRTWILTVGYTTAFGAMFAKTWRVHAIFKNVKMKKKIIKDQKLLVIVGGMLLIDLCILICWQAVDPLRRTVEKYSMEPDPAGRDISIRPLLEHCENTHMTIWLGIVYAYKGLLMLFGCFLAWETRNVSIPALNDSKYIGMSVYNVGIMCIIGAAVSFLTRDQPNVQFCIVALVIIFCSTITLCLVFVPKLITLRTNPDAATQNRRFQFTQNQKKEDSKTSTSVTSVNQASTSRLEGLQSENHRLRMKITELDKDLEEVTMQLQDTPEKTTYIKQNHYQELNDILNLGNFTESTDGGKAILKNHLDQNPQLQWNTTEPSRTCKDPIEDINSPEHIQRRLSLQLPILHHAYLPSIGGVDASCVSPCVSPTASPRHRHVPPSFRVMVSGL

In the case of `NCC1(CC(=O)O)CCCCC1` [gabapentin, 1-(aminomethyl) cyclohexaneacetic acid], the agonist activity [1] is given as “selective agonist”, the “time of peak plasma gabapentin concentrations” value (adults, post-dose) is given as 2 to 3 h and the absolute bioavailability (after administration of 300 mg, dose-dependent) is given as “approximately 60%”. The metabolism (in vivo) was “not metabolized”, the route of elimination (in vivo) was “eliminated via glomerular filtration” and the “crossing of the blood-brain barrier” value (unlike GABA) was “able to cross the blood-brain barrier”. The plasma protein binding (plasma proteins) was “does not bind to plasma proteins” and the solubility [2] was “freely soluble”.
